With O=C(N/N=C1\CC2(CCN(C/C=C/c3ccc(Cl)cc3)CC2)c2ccccc21)Nc1ccc(OC(F)(F)F)cc1 the melting point was 225 °C.

From US8354423B2, “Insecticidal spironindane derivatives” (priority 2003, dated 2013)
